The record followed here is patent US20140155445A1, “Compounds and Methods for Treating Cancer and Diseases of the Central Nervous System” (Osta Biotechnologies Inc., priority 2007, published 2014).

Experiment [1] concerns the target T1, HO-1 (rat spleen) (Rattus norvegicus, UniProt P06762).
T1 construct: Spleen microsomes were used as a source of HO-1; from tissue; host or cells: spleen microsomal fraction of adult male Sprague-Dawley rats
T1 sequence (P06762 1-289): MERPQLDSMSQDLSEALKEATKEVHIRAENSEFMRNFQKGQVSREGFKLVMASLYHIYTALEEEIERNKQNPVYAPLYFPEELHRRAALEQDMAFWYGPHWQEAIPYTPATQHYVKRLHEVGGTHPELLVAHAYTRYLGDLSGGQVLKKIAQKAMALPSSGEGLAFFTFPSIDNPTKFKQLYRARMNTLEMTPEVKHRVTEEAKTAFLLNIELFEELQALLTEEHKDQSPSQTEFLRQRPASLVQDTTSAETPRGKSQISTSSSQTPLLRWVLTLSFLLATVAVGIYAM
As to the kind of experiment: HO enzymatic activity in rat spleen microsomal fraction (CO formed from methemalbumin, gas chromatography). The format is biochemical. On the procedure:
(§1) Incubations for HO activity analysis were done under conditions for which the rate of CO formation (pmol CO×min^−1×mg protein^−1) was linear with respect to time and microsomal protein concentration. Briefly, reaction mixtures (150 μL) consisting of 100 mM phosphate buffer (pH 7.4), 50 μM methemalbumin, and 1 mg/mL protein were pre-incubated with the inhibitors at final concentrations ranging from 0.1-100 μM for 10 minutes at 37° C. Reactions were initiated by adding NADPH at a final concentration of 1 mM and incubations were performed for an additional 15 minutes at 37° C.
(§2) Incubations for HO activity analysis were done under conditions for which the rate of CO formation (pmol CO/mg protein/minute) was linear with respect to time and microsomal protein concentration. Briefly, reaction mixtures (150 μL) consisting of 100 mM phosphate buffer (pH 7.4), 50 μM methemalbumin and 1 mg/mL protein were pre-incubated with the vehicle (ethanol or water in which the inhibitors were dissolved), or inhibitors at final concentrations ranging from 0.1-1000 μM for 10 minutes at 37° C. Reactions were initiated by adding β-NADPH at a final concentration of 1 mM and incubations were carried out for an additional 15 minutes at 37° C. Reactions were stopped by instantly freezing the reaction mixture on pulverized dry ice and CO formation was measured by gas chromatography using a TA 3000R Process Gas Analyzer (Trace Analytical/Ametek, Newark, Del., USA).
(§3) The values on the abscissa represent the decimal logarithm of the inhibitor's concentration (in μM), whereas the values of the activity on the ordinate are expressed as a percentage of the control experiments without inhibitor.
(§4) The IC50 values for the replicate experiments were employed to generate the reported standard deviation value.

Experiment [2] deals with T2, HO-2 (rat brain) (Rattus norvegicus, UniProt P23711).
T2 construct: brain microsomes were used as a source of HO-2; from tissue; host or cells: brain microsomal fraction of adult male Sprague-Dawley rats
T2 sequence (P23711 1-315): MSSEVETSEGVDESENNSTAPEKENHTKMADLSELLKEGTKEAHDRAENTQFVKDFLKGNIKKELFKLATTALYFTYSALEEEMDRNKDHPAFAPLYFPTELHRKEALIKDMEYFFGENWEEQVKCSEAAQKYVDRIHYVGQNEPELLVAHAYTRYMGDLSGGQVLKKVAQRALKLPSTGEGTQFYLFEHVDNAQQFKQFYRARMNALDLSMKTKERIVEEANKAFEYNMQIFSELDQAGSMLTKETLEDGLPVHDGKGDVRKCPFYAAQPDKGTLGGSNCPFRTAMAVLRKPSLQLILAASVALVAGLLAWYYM
Put plainly: HO enzymatic activity in rat brain microsomal fraction (CO formed from methemalbumin, gas chromatography). The format is biochemical. On the procedure: as §1, §2, §3, §4

Where [3] appears, read: rat spleen microsomes, average ± standard deviation of replicate experiments, read-out: IC50 HO-1 (rat spleen)/μM.
Where [4] appears, read: rat brain microsomes, average ± standard deviation of replicate experiments, read-out: IC50 HO-2 (rat brain)/μM.

Where a name gives a salt, the structure may show the parent alone. Read-outs that look alike come from different tables or passages of the source.

Turning to `c1ccc(Cc2ccc(C3(Cn4ccnc4)OCCO3)cc2)cc1` [1-[2-(4-benzyl-phenyl)-[1,3]dioxolan-2-ylmethyl]-1H-imidazole hydrochloride], the IC50 in experiment [1] (setting [3]) is 4.98 ± 0.08 µM; in experiment [2] (setting [4]) it was over 100 µM.

`c1ccc(CCC2(Cn3ccnn3)OCCO2)cc1` [2-(2-phenethyl)-2-{(1H-[1,2,3]triazol-1-yl)methyl}-1,3-dioxolane hydrochloride]: the IC50 in experiment [1] (setting [3]) and in experiment [2] (setting [4]) was over 100 µM each time.

Consider `COC(=O)Nc1nc2ccc([S+]([O-])c3ccccc3)cc2[nH]1` (stereo not drawn) [(5-benzenesulfinyl-1H-benzoimidazol-2-yl)-carbamic acid methyl ester], for which the IC50 is 115 µM in experiment [1] (setting [3]) and over 100 µM in experiment [2] (setting [4]).

`CC(C)c1ccc(CCC(=O)Cn2ccnc2)cc1` [1-Imidazol-1-yl-4-(4-isopropyl-phenyl)-butan-2-one hydrochloride]: the IC50 in experiment [1] (setting [3]) was 0.163 ± 0.009 µM; in experiment [2] (setting [4]), 0.9 ± 0.2 µM.

Regarding `O/N=C(\Cn1ccnc1)c1ccc(Cl)cc1` [1-(4-chloro-phenyl)-2-imidazol-1-yl-ethanone oxime], the IC50 is 46 ± 8 µM in experiment [1] (setting [3]) and over 100 µM in experiment [2] (setting [4]).

As to Imidazole [reference compound], the IC50 in experiment [1] (setting [3]) and in experiment [2] (setting [4]) was over 100 µM in each case.

For the compound `[N-]=[N+]=NC[C@@H]1CO[C@@](CCc2ccc(Cl)cc2)(Cn2ccnc2)O1` [(2R,4R)-1-{4-azidomethyl-2-[2-(4-chloro-phenyl)-ethyl]-[1,3]dioxolan-2-ylmethyl}-1H-imidazole], the values for the IC50 in experiment [1] (setting [3]) and in experiment [2] (setting [4]) were 3.6 ± 0.2 µM and 38 ± 5 µM, respectively.

Turning to `c1ccc(SCCCCn2ccnc2)cc1` [1-(4-phenylsulfanyl-butyl)-1H-imidazole hydrochloride], the IC50 in experiment [1] (setting [3]) was 1.2 ± 0.2 µM; in experiment [2] (setting [4]) it was 5 ± 3 µM.

Regarding `COC(=O)Nc1nc2ccc(Sc3ccccc3)cc2[nH]1` [Fenbendazol, reference compound], the IC50 in experiment [1] (setting [3]) and in experiment [2] (setting [4]) was over 100 µM throughout.

As for `Nc1cccc(SC[C@@H]2CO[C@@](CCc3ccc(Cl)cc3)(Cn3ccnc3)O2)c1` [(2R,4S)-2-[2-(4-chlorophenyl)ethyl]-2-[(1H-imidazol-1-yl)methyl]-4-[{(3-aminophenyl]-4-[{(3-aminophenyl)thio}meth-yl]-1,3-dioxolane hydrochloride], the results for the IC50 in experiment [1] (setting [3]) and in experiment [2] (setting [4]) were 4 ± 2 µM and 6 ± 1 µM, respectively.

As to `O=C(Cn1cncn1)c1ccc(-c2ccccc2)cc1` [1-Biphenyl-4-yl-2-[1,2,4]triazol-1-yl-ethanone], the values for the IC50 in experiment [1] (setting [3]) and in experiment [2] (setting [4]) were 0.74 ± 0.05 µM and 7 ± 4 µM, respectively.

Regarding `c1ccc(CCCn2ccnc2)cc1` [1-(3-Phenyl-propyl)-1H-imidazole hydrochloride], the IC50 in experiment [1] (setting [3]) is 14 ± 4 µM; in experiment [2] (setting [4]) it was over 100 µM.

`Clc1ccc(CC[C@@]2(Cn3ccnc3)OC[C@@H](Cn3ccnc3)O2)cc1` [(2R,4R)-2-[2-(4-chlorophenyl)ethyl]-2-[(1H-imidazol-1-yl)methyl]-4-[(1H-imidazol-1-yl)methyl]-1,3-dioxolane dihydrochloride]: the IC50 stood at 10 ± 6 µM in experiment [1] (setting [3]) and 26 ± 3 µM in experiment [2] (setting [4]).

Regarding `Clc1ccc(CC[C@@]2(Cn3ccnc3)OC[C@@H](CSc3ccccc3Br)O2)cc1` [(2R,4S)-1-{4-(2-bromo-phenylsulfanylmethyl)-2-[2-(4-chloro-phenyl)-ethyl]-[1,3]dioxolan-2-ylmethyl}-1H-imidazole hydrochloride], the IC50 in experiment [1] (setting [3]) is 6 ± 1 µM; in experiment [2] (setting [4]) it was 12.3 ± 0.5 µM.

Take `Clc1ccc(CCCCn2ccnc2)cc1` [4-(4-chlorophenyl)-1-(1H-imidazol-1-yl)butane hydrochloride]: the figures for the IC50 in experiment [1] (setting [3]) and in experiment [2] (setting [4]) were 0.47 ± 0.05 µM and 4 ± 2 µM, respectively.

Take `Oc1ccc(SC[C@@H]2CO[C@@](CCc3ccc(Cl)cc3)(Cn3ccnc3)O2)cc1` [(2R,4S)-2-[2-(4-chlorophenyl)ethyl]-2-[(1H-imidazol-1-yl)methyl]-4-[{(4-hydroxyphenyl)thio}methyl]-1,3-dioxolane]: the results for the IC50 in experiment [1] (setting [3]) and in experiment [2] (setting [4]) were 1.59 ± 0.03 µM and 7 ± 2 µM, respectively.

`CC(=O)C(Cc1ccc(Cl)cc1)n1ccnc1` (racemic) [(±)-4-(4-chlorophenyl)-3-imidazol-1-yl-butan-2-one hydrochloride]: the IC50 in experiment [1] and in experiment [2] was over 100 µM each time.

For `O=C(CCc1ccccc1)Cn1cnc(-c2ccccc2)c1` [drawing 256, 4-Phenyl-1-(4-phenyl-1H-imidazol-1-yl)-butan-2-one hydrochloride], the IC50 in experiment [1] (setting [3]) was 32 ± 2 µM; in experiment [2] (setting [4]), over 100 µM.

For the compound `c1ccc(OCCCn2ccnc2)cc1` [1-(3-phenoxy-propyl)-1H-imidazole hydrochloride], the IC50 in experiment [1] (setting [3]) worked out at 42 ± 13 µM; in experiment [2] (setting [4]), 206 ± 96 µM.

In the case of `O=C(CCc1ccc(I)cc1)Cn1ccnc1` [4-(4-iodophenyl)-1-(1H-imidazol-1-yl)butan-2-one hydrochloride], the values for the IC50 in experiment [1] (setting [3]) and in experiment [2] (setting [4]) were 0.11 ± 0.06 µM and 1.8 ± 0.7 µM, respectively.

As for `COCC1CO[C@@](CCc2ccc(Cl)cc2)(Cn2ccnc2)O1` (stereo in doubt) [(2R,4S)-1-{2-[2-(4-chloro-phenyl)-ethyl]-4-methoxymethyl-[1,3]dioxolan-2-ylmethyl}-1H-imidazole hydrochloride], the IC50 in experiment [1] (setting [3]) is 1.73 ± 0.01 µM; in experiment [2] (setting [4]) it was 3.3 ± 0.9 µM.

For `c1ccc(OCCCCn2ccnc2)cc1` [1-(4-phenoxy-butyl)-1H-imidazole hydrochloride], the IC50 was 4 ± 1 µM in experiment [1] (setting [3]) and 4.6 ± 0.5 µM in experiment [2] (setting [4]).

For `Nc1ccc(OCC2CO[C@@](CCc3ccc(Cl)cc3)(Cn3ccnc3)O2)cc1` (stereo in doubt) [(2R,4S)-2-[2-(4-chlorophenyl)ethyl]-2-[(1H-imidazol-1-yl)methyl]-4-[(4-aminophenyloxy)meth-yl]-1,3-dioxolane dihydrochloride], the IC50 in experiment [1] (setting [3]) came to 1.4 ± 0.3 µM; in experiment [2] (setting [4]), 13 ± 4 µM.

As for `O=C(Cn1cncn1)c1ccc2c(c1)OCCO2`, the IC50 in experiment [1] (setting [3]) is 18 ± 4 µM; in experiment [2] (setting [4]) it was over 100 µM.

As to `c1ccc(CCC2(Cn3cnnn3)OCCO2)cc1` [1-(2-Phenethyl-[1,3]dioxolan-2-ylmethyl)-1H-tetrazole hydrochloride], the IC50 in experiment [1] (setting [3]) was 39 ± 5 µM; in experiment [2] (setting [4]), over 100 µM.

As for `c1ccc2[nH]c(NC3CCNCC3)nc2c1`, the IC50 in experiment [1] (setting [3]) and in experiment [2] (setting [4]) was over 100 µM in each case.

With `OC(Cn1ccnc1)c1ccc(-c2ccc(Br)cc2)cc1` (racemic) [drawing 342, (±)-1-(4′-bromo-biphenyl-4-yl)-2-imidazol-1-yl-ethanol], the IC50 in experiment [1] (setting [3]) was 0.06 ± 0.03 µM; in experiment [2] (setting [4]) it was over 100 µM.

As to `Clc1ccc(/C(Cn2ccnc2)=N/OCc2ccc(Br)cc2)cc1` [1-(4-chloro-phenyl)-2-imidazol-1-yl-ethanone O-(4-bromo-benzyl)-oxime hydrochloride], the values for the IC50 in experiment [1] (setting [3]) and in experiment [2] (setting [4]) were 8.3 ± 0.9 µM and 51 ± 26 µM, respectively.

As for `CSc1nnn(CC(=O)CCc2ccccc2)n1` [1-(5-Methylsulfanyl-tetrazol-2-yl)-4-phenyl-butan-2-one], the IC50 in experiment [1] (setting [3]) and in experiment [2] (setting [4]) was over 100 µM each time.

As for `c1cn(CCCCCCCCCCn2ccnc2)cn1` [1,10-bis-(1H-imidazol-1-yl)decane dihydrochloride], the IC50 in experiment [1] (setting [3]) is about 10 µM; in experiment [2] (setting [4]) it was about 14 µM.

Consider `CSc1nnnn1CC(=O)CCc1ccccc1` [1-(5-Methylsulfanyl-tetrazol-1-yl)-4-phenyl-butan-2-one], for which the IC50 in experiment [1] (setting [3]) and in experiment [2] (setting [4]) was over 100 µM throughout.

As to `Cc1ccc(CCC(=O)Cn2ccnc2)cc1` [1-Imidazol-1-yl-4-(4-methylphenyl)butan-2-one hydrochloride], the IC50 in experiment [1] (setting [3]) stood at 0.76 ± 0.01 µM; in experiment [2] (setting [4]) it was 3.7 ± 0.1 µM.

`Nc1ccccc1SC[C@@H]1CO[C@@](CCc2ccc(Cl)cc2)(Cn2ccnc2)O1` [(2R,4S)-2-[2-(4-chlorophenyl)ethyl]-2-[(1H-imidazol-1-yl)methyl]-4-[{(2-aminophenyl)thio}meth-yl]-1,3-dioxolane dihydrochloride]: the IC50 was found to be 4 ± 2 µM in experiment [1] (setting [3]) and 42 ± 28 µM in experiment [2] (setting [4]).
